From paper PMC11211886 (Frontiers in Pharmacology, 2024)
Like-named read-outs stand apart in the source and are kept apart here.

What was measured:
[1] = Single-dose PK and food effect in beagle dogs (IV/PO); parameters: species or system beagle dog; conditions: in vivo; for AUC(0-inf): AUC0-inf
Experimental: Twelve beagle dogs (6-10 kg, male: female = 1:1) purchased from Beijing Marshall Biotechnology Co. Ltd. (Beijing, China) were enrolled in a three-period self-control cross-over study with a washout time of 1 week. […] In Period 1 and Period 2, dogs were fasted overnight until dosing. […] Approximately 1.0 mL of blood was collected per time point from the jugular vein using a 2 mL injector and transferred to a 3 mL tube that contained sodium heparin. The collected blood samples were centrifuged at 3,500 g for 5 min at 4°C to collect plasma within 30 min after sample collection. […] Animals were fasted overnight and for approximately 4 h post-dose. […] At each time point, approximately 1.0 mL of blood was collected from the femoral vein and transferred into an individual tube that contained sodium heparin. The blood samples were centrifuged at 3,500 g for 5 min at 4°C to harvest plasma.

CYP2C8 = assay: CYP induction in human hepatocytes, CYP2C8 enzyme activity
Experimental: (§1) […] […] […] Enzyme activity for each CYP isoform was reported as a fold change over vehicle control and the percent of positive control (detailed calculation in Supplementary 1.1). Hepatocytes were harvested with a lysis buffer from RNeasy 96 Kit (Qiagen Inc., Germantown, MD, USA) to isolate RNA, which was analyzed by real-time quantitative polymerase chain reaction (RT-PCR). […] Emax (the maximal observed induction) and EC50 (the concentration that supports half-maximal induction) were estimated by non-linear regression of fold increase in CYP mRNA expression versus concentration plots.
(§2) The fold of vehicle control and the percent of positive control were calculated with the formulas below:
(§3) Fold of vehicle control = CYPs activity of test compound (or positive control) treated sample / CYPs activity of vehicle control treated sample
(§4) % of positive control = [(fold change in treated sample)-1] / [(fold change in positive control)-1] × 100
(§5) Based on the enzyme activity, a minimum of 2-fold increase compared to vehicle control for the positive control and ≥40% of the positive control for the test article was considered as the cutoff for a positive signal in in vitro induction assay.

CYP2C9 = assay: CYP induction in human hepatocytes, CYP2C9 enzyme activity
Experimental: as §1, §2, §3, §4, §5

CYP2C19 = assay: CYP induction in human hepatocytes, CYP2C19 enzyme activity; type: in vitro ADME
Experimental: as §1, §2, §3, §4, §5

CYP1A2 mRNA = assay: in vitro; conditions: human; for EC50 at 48 h: EC50, CYP1A2 expression
Experimental: as §1, §4
(§6) Based on the gene expression, a minimum of 4-fold increase of positive control compared to vehicle control, a minimum of 2-fold increase of the test article compared vehicle control and increased in a concentration-dependent manner was considered as the cutoff for a positive signal in in vitro induction assay.

CYP2C8 mRNA = assay: CYP induction in human hepatocytes, CYP2C8 mRNA (RT-PCR)
Experimental: as §1, §4, §6

[2] = Cytotoxicity on human hepatocytes in induction assay; type: cell-based; conditions: 20 μM, CYP2C induction evaluation (data not shown)
Experimental: as §1

[3] = both sexes, beagle, dog, iv, 0.5 mg/kg
[4] = both sexes, beagle, dog, po, 0.5 mg/kg
[5] = both sexes, beagle, dog, po, 3.5 mg/kg
[6] = both sexes, beagle, dog, po, 25 mg/kg

Compound: C[C@H](Nc1ncnc(N)c1C#N)c1cc2ncc(Cl)n2nc1-c1ccccc1 [Amdizalisib]
- AUC(0-t) [1, 3]: 750 ± 272 ng·h/mL
- Vd [1, 3]: 2.4 ± 0.354 L/kg
- AUC(0-inf) [1, 3]: 772 ± 272 ng·h/mL
- MRT ([1]; both sexes, beagle, dog, iv, 0.5 mg/kg, Beagle dog, fasted, IV 0.5 mg/kg, read-out: MRT): 3.65 ± 1.29 h
- half-life ([1]; both sexes, beagle, dog, iv, 0.5 mg/kg, Beagle dog, fasted, IV 0.5 mg/kg, read-out: t1/2 (converted)): 3.02 ± 1.27 h
- MRT [1, 4]: 9.66 ± 6.73 h
- Tmax [1, 4]: 1.92 ± 0.665 h
- half-life [1, 4]: 7.22 ± 6.55 h
- AUC(0-inf) [1, 4]: 359 ± 259 ng·h/mL
- Cmax ([1]; both sexes, beagle, dog, po, 0.5 mg/kg, Cmax): 42.4 ± 21.8 ng/mL
- AUC(0-t) [1, 5]: 5540 ng·h/mL
- MRT [1, 5]: 13.8 ± 4.85 h
- Tmax [1, 5]: 6.25 ± 9.11 h
- AUC(0-inf) [1, 5]: 5660 ng·h/mL
- half-life ([1]; both sexes, beagle, dog, po, 3.5 mg/kg, Beagle dog, fasted, PO 3.5 mg/kg, read-out: t1/2 (converted)): 6.08 ± 1.48 h
- AUC(0-t) [1, 6]: 66500 ng·h/mL
- AUC(0-inf) [1, 6]: 72800 ng·h/mL
- MRT ([1]; both sexes, beagle, dog, po, 25 mg/kg, Beagle dog, fasted, PO 25 mg/kg, read-out: MRT): 31.8 ± 10.2 h
- Tmax ([1]; both sexes, beagle, dog, po, 25 mg/kg, Beagle dog, fasted, PO 25 mg/kg, read-out: Tmax): 15 ± 10.4 h
- half-life ([1]; both sexes, beagle, dog, po, 25 mg/kg, Beagle dog, fasted, PO 25 mg/kg, read-out: t1/2 (converted)): 13.9 ± 5.07 h
- Tmax ([1]; both sexes, beagle, dog, po, 25 mg/kg, Beagle dog, fed, PO 25 mg/kg, read-out: Tmax): 7 ± 8.34 h
- half-life ([1]; both sexes, beagle, dog, po, 25 mg/kg, Beagle dog, fed, PO 25 mg/kg, read-out: t1/2 (converted)): 17.4 ± 2.49 h
- clearance ([1]; both sexes, Beagle dog, fasted, IV 0.5 mg/kg): 11.8 ± 3.61 mL/min/kg
- Cmax ([1]; both sexes, Beagle dog, fasted, PO 3.5 mg/kg, read-out: Cmax): 347 ± 105 ng/mL
- CL as % of the hepatic blood flow ([1]; both, beagle, dog, iv): 38.1%
- Cmax ([1]; both, beagle, dog, po, 25 mg/kg): 2,159 ± 1,070 ng/mL
- Enzyme activity Percent of PC (%) (CYP2C8; CYP 2C8, donor one, 3 µM): 10.8%
- Enzyme activity Percent of PC (%) (CYP2C8; female, human, 48 h, 0.3 µM): 5.21%
- Enzyme activity Percent of PC (%) (CYP2C8; female, human, 48 h, 20 µM): -19.4%
- Enzyme activity Percent of PC (%) (CYP2C9; CYP2C9, donor eight, 20 µM): 14.5%
- Enzyme activity Percent of PC (%) (CYP2C9; female, human, 48 h, 0.3 µM): 5.63%
- Enzyme activity Percent of PC (%) (CYP2C9; female, human, 48 h, 3 µM): 30.0%
- Enzyme activity Percent of PC (%) (CYP2C9; female, human, 48 h, 20 µM): 38.1%
- Enzyme activity Percent of PC (%) (CYP2C9; male, human, 48 h, 20 µM): 36.5%
- Enzyme activity Percent of PC (%) (CYP2C19; CYP2C19, donor eight, 0.3 µM): 2.58%
- Enzyme activity Percent of PC (%) (CYP2C19; CYP2C19, donor eight, 3 µM): -3.72%
- Enzyme activity Percent of PC (%) (CYP2C19; CYP2C19, donor eight, 20 µM): -16.6%
- Enzyme activity Percent of PC (%) (CYP2C19; CYP2C19, donor four, 0.3 µM): -2.17%
- Enzyme activity Percent of PC (%) (CYP2C19; CYP2C19, donor four, 3 µM): -13.5%
- Enzyme activity Percent of PC (%) (CYP2C19; CYP2C19, donor four, 20 µM): -28.3%
- Enzyme activity Percent of PC (%) (CYP2C19; CYP2C19, donor one, 0.3 µM): 6.39%
- Enzyme activity Percent of PC (%) (CYP2C19; CYP2C19, donor one, 3 µM): 1.83%
- Enzyme activity Percent of PC (%) (CYP2C19; CYP2C19, donor one, 20 µM): -19.2%
- induction of CYP2C19 enzyme activity (CYP2C19; up to 20 µM, all three donors): no induction potential
- induction on CYP1A2 mRNA expression (CYP1A2 mRNA; both, hepatocytes, 48 h, 20 µM): >2-fold induction on CYP1A2, 2B6, 3A4, 2C9 mRNA expression at 20 uM
- EC50 at 48 h (CYP1A2 mRNA; female): 9.57 µM
- Gene expression Percent of PC (%) (CYP1A2 mRNA; male, 48 h, 1 µM): 3.60%
- Gene expression Percent of PC (%) (CYP1A2 mRNA; male, 48 h, 3 µM): 0.30%
- Gene expression Percent of PC (%) (CYP1A2 mRNA; male, 48 h, 10 µM): 10.7%
- Gene expression Percent of PC (%) (CYP1A2 mRNA; male, 48 h, 20 µM): 8.20%
- Gene expression Percent of PC (%) (CYP1A2 mRNA; male, 48 h, 30 µM): 14.2%
- EC50 at 48 h (CYP1A2 mRNA; male): 7.73 µM
- Gene expression Percent of PC (%) (CYP2C8 mRNA; CYP 2C8, donor four, 3 µM): 14.5%
- Gene expression Percent of PC (%) (CYP2C8 mRNA; female, human, 48 h, 0.3 µM): 7.24%
- Gene expression Percent of PC (%) (CYP2C8 mRNA; female, human, 48 h, 3 µM): 13.5%
- Gene expression Percent of PC (%) (CYP2C8 mRNA; female, human, 48 h, 20 µM): 3.97%
- Gene expression Percent of PC (%) (CYP2C8 mRNA; male, human, 48 h, 3 µM): 9.01%
- cytotoxic effect on cell viability [2]: exhibited cytotoxicity against human hepatocytes in one donor
